Where two headings read alike, the source gives them in different places.
Experiments:
[1] = test system: H1650; assay: Non Small Cell Lung Cancer proliferation assay (Alamar Blue reduction), H1650; assay type: cell-based, human; conditions: Homo sapiens; for IC50: NCI-H1650, dose response 10 M to 5 nM, read-out: Dose Response (uM) H1650; for inhibition at 10 µM: NCI-H1650, primary screening, 10 μM compound in 1% DMSO (v/v)
Method in brief: (§1)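 Proliferation after 48 h compound exposure (1% DMSO final, 37 °C) was read by Alamar Blue reduction over an additional 48 h, fluorescence at 530 nm excitation/590 nm emission. Dose-response runs seeded 250 cells/well; DMSO-only wells as high control.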

[2] = test system: H1734; assay: Non Small Cell Lung Cancer proliferation assay (Alamar Blue reduction), H1734; assay type: cell-based, human; conditions: Homo sapiens, read-out: Dose Response (uM) H1734
Method: (§2) These cells have a doubling time of 1-2 days. All cell types are adherent and grow in colonies. The cells should be kept at a density between 50,000 cells/mL -500,000 cells/mL to provide for optimum growth and adequate nutrition. The cell line should be maintained at 37° C. in a humidified atmosphere with 5% CO2 in a sterile cell culture incubator.
(§3) Non Small Cell Lung Cancer Proliferation Assay.
(§4) High Controls for this assay are made by treating Non Small Cell Lung Cancer cells with 5 ul of 10% DMSO. [Final concentration in this assay is 1% DMSO].
(§5) Important Note: All compounds for testing in this assay should be done at the final concentration of 1% DMSO.
(§6) After addition, the cells are placed in cell culture incubator at 37° C. for 48 hours for complete treatment.
(§7) After drug treatment, cytotoxicity is measured by Alamar Blue reduction.
(§8) The cells are incubated for 48 hours at 37° C. to complete the Alamar Blue reduction.
(§9) The final step in the assay is to measure the amount of Alamar Blue reduction. […] The Alamar Blue fluorescence is measured at an excitation of 530 nm and emission of 590 nm.
(§10) For the NSCLC project, the cell based assay was screened against a small molecule library of approximately 200,000 compounds. The compound library is stored in our automated robotic freezer (Biophile) at −20° C. in 100% DMSO. Compound freeze and thaw cycles are kept to a minimum. […] This assay was performed on a fully automated linear track robotic platform (CRS F3 Robot System, Thermo Electron Corp., Ontario, Canada) utilizing several integrated peripherals for plate handling, liquid dispensing, and readout detection. […] The microplates are then placed at 37° C. for 48 hours to complete treatment of cells with compounds. Next, 5 ul of alamar blue was added using a liquid dispenser (Flexprop Precision Dispenser, Perkin Elmer, Mass., USA) and incubated for 48 hours at 37° C. The alamar blue prompt fluorescence was measured on Victor V (Victor^3 V, Perkin Elmer, Mass., USA) and output data files were loaded into ORIS (Oncology Research Informatics System, MSKCC, NY, USA), a screening data acquisition and analysis platform.
(§11) The dose response studies were done with the following standard procedure. First, the cells were counted and dispensed at 250 cells/well into 384-well microplates with compound. The cells were incubated for 48 hours at 37 C to complete treatment, and then alamar blue was added for an additional 48 hours. Finally, alamar blue reduction was measured and the data was loaded into ORIS, our data screening acquisition platform.

[3] = test system: H2030; assay: Non Small Cell Lung Cancer proliferation assay (Alamar Blue reduction), H2030; assay type: cell-based, human; conditions: Homo sapiens; for IC50: NCI-H2030, dose response 10 M to 5 nM, read-out: Dose Response (uM) H2030; for inhibition at 10 µM: NCI-H2030, primary screening, 10 μM compound in 1% DMSO (v/v)
Method in brief: as §1

[4] = test system: H3255; assay: Non Small Cell Lung Cancer proliferation assay (Alamar Blue reduction), H3255; assay type: cell-based, human; conditions: Homo sapiens; for IC50: NCI-H3255, dose response 10 M to 5 nM, read-out: Dose Response (uM) H3255; for inhibition at 10 µM: NCI-H3255, primary screening, 10 μM compound in 1% DMSO (v/v)
Method in brief: as §1

[5] = in vitro; conditions: human
Method: NHBE (normal human bronchiolar epithelial cells) are primary cells obtained from donor lungs and commercially available from Cambrex. The HPL1D (human peripheral lung epithelial) cell line has been immortalized with the SV40 large T-antigen. WI-38: human lung fibroblast cell line. HPLID, NHBE and WI-38 cells will serve as controls in the chemical screens. WT: wildtype; WT*: over-expressed wildtype.
Compounds were tested in dose response studies from […] to 5 nM against several non small cell lung cancer lines: H358, H827, H1118, H1650, H1734, H1975, H2030, and H3255, and were also studied in a 72 hour cytotoxicity assay against the NHBE and WI-38 cell lines.

[6] = test system: H358; assay: Non Small Cell Lung Cancer proliferation assay (Alamar Blue reduction), H358; assay type: cell-based; conditions: Homo sapiens, read-out: Dose Response (uM) H358
Method: as §2, §3, §4, §5, §6, §7, §8, §9, §10, §11

[7] = test system: H1975; assay: Non Small Cell Lung Cancer proliferation assay (Alamar Blue reduction), H1975; assay type: cell-based, human; conditions: Homo sapiens; for IC50: NCI-H1975, dose response 10 M to 5 nM, read-out: Dose Response (uM) H1975; for inhibition at 10 µM: NCI-H1975, primary screening, 10 μM compound in 1% DMSO (v/v)
Method in brief: as §1

[8] = H1650, read-out: PRIMARY HTS [%] H1650 (percentage inhibition)
[9] = H2030, read-out: PRIMARY HTS [%] H2030 (percentage inhibition)
[10] = H3255, read-out: PRIMARY HTS [%] H3255 (percentage inhibition)
[11] = H1975, read-out: PRIMARY HTS [%] H1975 (percentage inhibition)

| SMILES | IC50 [1] | IC50 ([2]; NCI-H1734) | IC50 [3] | IC50 [4] | IC50 at 72 h ([5]; CytoTox (uM) NHBE) | IC50 at 72 h ([5]; CytoTox (uM) WI-38) | IC50 ([6]; NCI-H358) | IC50 [7] | further results |
| --- | --- | --- | --- | --- | --- | --- | --- | --- | --- |
| CCN(CC)c1c(Cl)cnn(-c2cccc(C)c2)c1=O [compound 267076] | > 10 µM | > 10 µM | > 10 µM | > 10 µM | > 10 µM | > 10 µM | > 10 µM | > 10 µM |  |
| CCN(CC)c1cnn(-c2cccc(C)c2)c(=O)c1Cl [compound 267074] | > 10 µM | > 10 µM | > 10 µM | > 10 µM | > 10 µM | > 10 µM | > 10 µM | > 10 µM |  |
| O=c1c(Cl)c(Cl)cnn1-c1c(Cl)cc(C(F)(F)F)cc1Cl [compound 267059] | > 10 µM | > 10 µM | > 10 µM | > 10 µM | > 10 µM | > 10 µM | > 10 µM | > 10 µM |  |
| CCOc1cnn(-c2cccc(C)c2)c(=O)c1Cl [compound 267075] | > 10 µM |  | > 10 µM | > 10 µM | > 10 µM | > 10 µM |  | > 10 µM | IC50 ([2]; NCI-H1734, dose response 10 M to 5 nM, IC50): > 10 µM; IC50 ([6]; NCI-H358, dose response 10 M to 5 nM, IC50): > 10 µM |
| Cc1cccc(NC(=O)c2cc3cc([N+](=O)[O-])ccc3o2)c1 [compound 84487] |  |  |  |  |  |  |  |  | inhibition at 10 µM [1, 8]: 27%; inhibition at 10 µM [3, 9]: 5%; inhibition at 10 µM [4, 10]: 3%; inhibition at 10 µM [7, 11]: -5% |
| CN(C)c1c(Cl)cnn(-c2ccccc2)c1=O [compound 103911] |  |  |  |  |  |  |  |  | inhibition at 10 µM ([1]; read-out: percentage inhibition H1650): -7%; inhibition at 10 µM ([3]; read-out: percentage inhibition H2030): -5%; inhibition at 10 µM ([4]; read-out: percentage inhibition H3255): -3%; inhibition at 10 µM ([7]; read-out: percentage inhibition H1975): -12% |
| Cc1ccc(C(=O)Nc2ccc(NC(=O)c3ccco3)cc2)c(C)c1 [compound 97216] |  |  |  |  |  |  |  |  | inhibition at 10 µM [1, 8]: -1%; inhibition at 10 µM [3, 9]: -4%; inhibition at 10 µM [4, 10]: 3%; inhibition at 10 µM [7, 11]: -4% |

— patent US20100210649A1, “PYRIDAZINONES AND FURAN-CONTAINING COMPOUNDS” (Sloan-Kettering Institute for Cancer Research, priority 2006, published 2010)
